Laboratory results: US9174994B2, “Enhanced treatment regimens using mTor inhibitors” (INTELLIKINE LLC, priority 2011, dated 2015)

Assay: Phase I clinical trial: treatment-emergent adverse events (patients, n (%)), dose limiting toxicity, MTD
Type: in vivo
Protocol: Safety, maximum tolerated dose (MTD), pharmacokinetics (PK) and preliminary antitumor activity were evaluated.
Pharmacodynamic (PD) endpoints were evaluated in surrogate (peripheral blood cells [PBCs], skin) and tumor tissues for the phosphorylation of TORC1-dependent markers (4EBP1/S6), and TORC2-dependent markers (AKT/PRAS40).

CC(C)n1nc(-c2ccc3oc(N)nc3c2)c2c(N)ncnc21 [compound A]
reversible: adverse events (AEs) reported: reversibility (3 intermittent dosing regimens)
2 (8%): Grade 3 or greater TEAE: Hypokalaemia (QD Dosing (N = 25)) | Grade 3 or greater TEAE: Hyponatraemia (QD Dosing (N = 25)) | Grade 3 or greater TEAE: Lymphopenia (QD Dosing (N = 25)) | Grade 3 or greater TEAE: Pruritus (QD Dosing (N = 25)) | Grade 3 or greater TEAE: Thrombocytopenia (QD Dosing (N = 25))
1 (2%): Catheter site inflammation (Table 8: Total (N = 60)) | Catheter site pain (Table 8: Total (N = 60)) | Coagulopathy (Table 8: Total (N = 60)) | Confusional state (Table 8: Total (N = 60)) | Cough (Table 8: Total (N = 60)) | DIARRHEA (Table 8: Total (N = 60)) | Dizziness (Table 8: Total (N = 60)) | Dyspnoea exertional (Table 8: Total (N = 60))
4 (16%): Grade 3 or greater TEAE: Hyperglycaemia (QD Dosing (N = 25))
3 (20%): Patients Reporting at Least One Grade 3 or Greater TEAE (QW Dosing (N = 15))
0 (0%): Grade 3 or greater TEAE: Aspartate aminotransferase increased (QD Dosing (N = 25)) | Grade 3 or greater TEAE: Asthenia (QD Dosing (N = 25)) | Grade 3 or greater TEAE: Disease progression (QD Dosing (N = 25)) | Grade 3 or greater TEAE: Gamma-glutamyltransferase increased (QD Dosing (N = 25)) | Grade 3 or greater TEAE: Gastroenteritis (QD Dosing (N = 25)) | Grade 3 or greater TEAE: Rash macular (QD Dosing (N = 25)) | Grade 3 or greater TEAE: Urinary tract infection (QD Dosing (N = 25)) | Grade 3 or greater TEAE: Abdominal pain upper (QDx3d QW (N = 14)) | Grade 3 or greater TEAE: Anaemia (QDx3d QW (N = 14)) | Grade 3 or greater TEAE: Aspartate aminotransferase increased (QDx3d QW (N = 14)) | Grade 3 or greater TEAE: Catheter related infection (QDx3d QW (N = 14)) | Grade 3 or greater TEAE: Cellulitis (QDx3d QW (N = 14)) | Grade 3 or greater TEAE: Enterocutaneous fistula (QDx3d QW (N = 14)) | Grade 3 or greater TEAE: Hypokalaemia (QDx3d QW (N = 14)) | Grade 3 or greater TEAE: Hyponatraemia (QDx3d QW (N = 14)) | Grade 3 or greater TEAE: Pancreatitis acute (QDx3d QW (N = 14)) | Grade 3 or greater TEAE: Pleural effusion (QDx3d QW (N = 14)) | Grade 3 or greater TEAE: Pruritus (QDx3d QW (N = 14)) | Grade 3 or greater TEAE: Rash (QDx3d QW (N = 14)) | Grade 3 or greater TEAE: Somnolence (QDx3d QW (N = 14)) | Grade 3 or greater TEAE: Thrombocytopenia (QDx3d QW (N = 14)) | Grade 3 or greater TEAE: Abdominal pain upper (QDx5d QW (N = 6)) | Grade 3 or greater TEAE: Anaemia (QDx5d QW (N = 6)) | Grade 3 or greater TEAE: Aspartate aminotransferase increased (QDx5d QW (N = 6)) | Grade 3 or greater TEAE: Asthenia (QDx5d QW (N = 6)) | Grade 3 or greater TEAE: Catheter related infection (QDx5d QW (N = 6)) | Grade 3 or greater TEAE: Cellulitis (QDx5d QW (N = 6)) | Grade 3 or greater TEAE: Diarrhoea (QDx5d QW (N = 6)) | Grade 3 or greater TEAE: Disease progression (QDx5d QW (N = 6)) | Grade 3 or greater TEAE: Enterocutaneous fistula (QDx5d QW (N = 6)) | Grade 3 or greater TEAE: Gamma-glutamyltransferase increased (QDx5d QW (N = 6)) | Grade 3 or greater TEAE: Gastroenteritis (QDx5d QW (N = 6)) | Grade 3 or greater TEAE: Hyperglycaemia (QDx5d QW (N = 6)) | Grade 3 or greater TEAE: Hypokalaemia (QDx5d QW (N = 6)) | Grade 3 or greater TEAE: Hyponatraemia (QDx5d QW (N = 6)) | Grade 3 or greater TEAE: Lymphopenia (QDx5d QW (N = 6)) | Grade 3 or greater TEAE: Pancreatitis acute (QDx5d QW (N = 6)) | Grade 3 or greater TEAE: Pleural effusion (QDx5d QW (N = 6)) | Grade 3 or greater TEAE: Pruritus (QDx5d QW (N = 6)) | Grade 3 or greater TEAE: Rash (QDx5d QW (N = 6)) | Grade 3 or greater TEAE: Rash macular (QDx5d QW (N = 6)) | Grade 3 or greater TEAE: Somnolence (QDx5d QW (N = 6)) | Grade 3 or greater TEAE: Thrombocytopenia (QDx5d QW (N = 6)) | Grade 3 or greater TEAE: Urinary tract infection (QDx5d QW (N = 6)) | Patients Reporting at Least One Grade 3 or Greater TEAE (QDx5d QW (N = 6)) | Grade 3 or greater TEAE: Abdominal pain upper (QW Dosing (N = 15)) | Grade 3 or greater TEAE: Anaemia (QW Dosing (N = 15)) | Grade 3 or greater TEAE: Asthenia (QW Dosing (N = 15)) | Grade 3 or greater TEAE: Catheter related infection (QW Dosing (N = 15)) | Grade 3 or greater TEAE: Cellulitis (QW Dosing (N = 15)) | Grade 3 or greater TEAE: Disease progression (QW Dosing (N = 15)) | Grade 3 or greater TEAE: Enterocutaneous fistula (QW Dosing (N = 15)) | Grade 3 or greater TEAE: Gastroenteritis (QW Dosing (N = 15)) | Grade 3 or greater TEAE: Hyperglycaemia (QW Dosing (N = 15)) | Grade 3 or greater TEAE: Hypokalaemia (QW Dosing (N = 15)) | Grade 3 or greater TEAE: Hyponatraemia (QW Dosing (N = 15)) | Grade 3 or greater TEAE: Pancreatitis acute (QW Dosing (N = 15)) | Grade 3 or greater TEAE: Pleural effusion (QW Dosing (N = 15)) | Grade 3 or greater TEAE: Pruritus (QW Dosing (N = 15)) | Grade 3 or greater TEAE: Rash (QW Dosing (N = 15)) | Grade 3 or greater TEAE: Rash macular (QW Dosing (N = 15)) | Grade 3 or greater TEAE: Somnolence (QW Dosing (N = 15)) | Grade 3 or greater TEAE: Thrombocytopenia (QW Dosing (N = 15)) | Grade 3 or greater TEAE: Urinary tract infection (QW Dosing (N = 15))
7 (28%): Grade 3 or greater TEAE: Rash (QD Dosing (N = 25))
6%: lymphopenia, only reported Grade 3 or higher AE possibly related (3 regimens)
1 (7%): Grade 3 or greater TEAE: Asthenia (QDx3d QW (N = 14)) | Grade 3 or greater TEAE: Diarrhoea (QDx3d QW (N = 14)) | Grade 3 or greater TEAE: Disease progression (QDx3d QW (N = 14)) | Grade 3 or greater TEAE: Gamma-glutamyltransferase increased (QDx3d QW (N = 14)) | Grade 3 or greater TEAE: Gastroenteritis (QDx3d QW (N = 14)) | Grade 3 or greater TEAE: Hyperglycaemia (QDx3d QW (N = 14)) | Grade 3 or greater TEAE: Lymphopenia (QDx3d QW (N = 14)) | Grade 3 or greater TEAE: Rash macular (QDx3d QW (N = 14)) | Grade 3 or greater TEAE: Urinary tract infection (QDx3d QW (N = 14)) | Grade 3 or greater TEAE: Aspartate aminotransferase increased (QW Dosing (N = 15)) | Grade 3 or greater TEAE: Diarrhoea (QW Dosing (N = 15)) | Grade 3 or greater TEAE: Gamma-glutamyltransferase increased (QW Dosing (N = 15)) | Grade 3 or greater TEAE: Lymphopenia (QW Dosing (N = 15))
15 (60%): Patients Reporting at Least One Grade 3 or Greater TEAE (QD Dosing (N = 25))
7 (50%): Patients Reporting at Least One Grade 3 or Greater TEAE (QDx3d QW (N = 14))
1 (4%): Grade 3 or greater TEAE: Abdominal pain upper (QD Dosing (N = 25)) | Grade 3 or greater TEAE: Anaemia (QD Dosing (N = 25)) | Grade 3 or greater TEAE: Catheter related infection (QD Dosing (N = 25)) | Grade 3 or greater TEAE: Cellulitis (QD Dosing (N = 25)) | Grade 3 or greater TEAE: Diarrhoea (QD Dosing (N = 25)) | Grade 3 or greater TEAE: Enterocutaneous fistula (QD Dosing (N = 25)) | Grade 3 or greater TEAE: Pancreatitis acute (QD Dosing (N = 25)) | Grade 3 or greater TEAE: Pleural effusion (QD Dosing (N = 25)) | Grade 3 or greater TEAE: Somnolence (QD Dosing (N = 25))
Grade (G) 3 asthenia and G3 mucositis: Dose limiting toxicities (40 mg QW, 20 mg QDx3d QW and 13 mg QDxSd QW cohorts)
